Assay results from ChEMBL document CHEMBL1157733, “Isolation, structure, and bioactivities of abiesadines A-Y, 25 new diterpenes from Abies georgei Orr” (Bioorg Med Chem, 2010).
Converted amounts (≈) assume the structure as drawn.

Columns and labels:
LoVo = assay: Antiproliferative activity against human LoVo cells; format: functional, cell-based
RAW264.7 = assay: Antiinflammatory activity in mouse RAW264.7 cells assessed as inhibition of LPS-induced NO release; format: functional, cell-based
[1] = Antiproliferative activity against human QGY7703 cells; format: functional, cell-based; conditions: QGY-7703
[2] = Inhibition of TNF-alpha-induced NF-kappaB activity in human pNF-kappaB-luc-293 cells; format: cell-based; conditions: HEK293

| IC50 (LoVo) [µg/mL] | IC50 (RAW264.7) [µg/mL] | IC50 [2] [µg/mL] | Compound | IC50 [1] [µg/mL] |
| --- | --- | --- | --- | --- |
| > 25 | > 100 | > 100 | CO[C@@H]1C[C@H]2[C@](C)(COC(=O)CCC(=O)O)CCC[C@]2(C)c2ccc(C(C)C)cc21 [ABIESADINE G] | > 25 |
| > 25 | 83.4 (≈ 200 µM) | > 100 | COC(=O)CCC(=O)OC[C@]1(C)CCC[C@]2(C)c3ccc(C(C)C)cc3[C@H](O)C[C@@H]12 [ABIESADINE H] | > 25 |
| > 25 | > 100 | > 100 | CC(C)(O)c1ccc2c(c1)CC[C@H]1[C@](C)(COC(=O)CCC(=O)O)CCC[C@]21C [ABIESADINE I] | > 25 |
| > 25 | > 100 | > 100 | COC(C)(C)c1ccc2c(c1)CC[C@H]1[C@](C)(COC(=O)CCC(=O)O)CCC[C@]21C [ABIESADINE J] | > 25 |
| > 25 | 52.1 (≈ 125 µM) | > 100 | COC(=O)CCC(=O)OC[C@]1(C)CCC[C@]2(C)c3ccc(C(C)(C)O)cc3CC[C@@H]12 [ABIESADINE K] | > 25 |
| > 25 | > 100 | > 100 | CC(C)(O)c1ccc2c(c1)[C@H](O)C[C@H]1[C@](C)(COC(=O)CCC(=O)O)CCC[C@]21C [ABIESADINE L] | > 25 |
| > 25 | > 100 | > 100 | COC(C)(C)c1ccc2c(c1)[C@H](O)C[C@H]1[C@](C)(COC(=O)CCC(=O)O)CCC[C@]21C [ABIESADINE M] | > 25 |
| > 25 | > 100 | > 100 | COC(C)(C)c1ccc2c(c1)CC[C@H]1[C@](C)(C(=O)O)CCC[C@]21C [ABIESADINE N] | > 25 |
| > 25 | > 100 | > 100 | COC(C)(C)c1ccc2c(c1)[C@H](O)C[C@H]1[C@](C)(C(=O)O)CCC[C@]21C [ABIESADINE O] | > 25 |
| > 25 | 94.1 (≈ 273 µM) | > 100 | CCOC(C)(C)c1ccc2c(c1)CC[C@H]1[C@](C)(C(=O)O)CCC[C@]21C [ABIESADINE P] | > 25 |
| > 25 | > 100 | > 100 | CC(C)c1ccc2c(c1)C(=O)C[C@H]1[C@](C)(COC(=O)CCC(=O)O)CCC[C@]21C [ABIESADINE Q] | > 25 |
| > 25 | > 100 | > 100 | CC(C)(O)c1ccc2c(c1)C(=O)C[C@H]1[C@](C)(COC(=O)CCC(=O)O)CCC[C@]21C [ABIESADINE R] | > 25 |
| > 25 | 49 (≈ 114 µM) | > 100 | COC(=O)CCC(=O)OC[C@]1(C)CCC[C@]2(C)c3ccc(C(C)(C)O)cc3C(=O)C[C@@H]12 [ABIESADINE S] | > 25 |
| > 25 | > 100 | > 100 | C=C[C@@](C)(O)CCC1C(=C)CC[C@H]2[C@](C)(COC(=O)CCC(=O)O)CCC[C@]12C (some centres undefined) [ABIESADINE X] | > 25 |
| 10.6 (≈ 25.2 µM) | 48.5 (≈ 115 µM) | 22.4 (≈ 53.3 µM) | C=C[C@@](C)(O)CC[C@H]1C(=C)CC[C@H]2[C@](C)(COC(=O)CCC(=O)OC)CCC[C@]12C [ABIESADINE Y] | > 25 |
| > 25 | > 100 | > 100 | CC(C)C1=CC2=CC[C@@H]3[C@](C)(CCC[C@@]3(C)C(=O)O)[C@H]2CC1 [ABIETIC ACID] | > 25 |
| > 25 | 42.7 (≈ 142 µM) | > 100 | CC(C)c1ccc2c(c1)CC[C@H]1[C@](C)(C(=O)O)CCC[C@]21C [DEHYDROABIETIC ACID] | > 25 |
| 0.55 (≈ 1.01 µM) | – | – | COc1cccc2c1C(=O)c1c(O)c3c(c(O)c1C2=O)C[C@@](O)(C(=O)CO)C[C@@H]3O[C@H]1C[C@H](N)[C@H](O)[C@H](C)O1 [DOXORUBICIN] | 0.42 (≈ 0.773 µM) |
| > 25 | 11 (≈ 37.9 µM) | > 100 | C=C[C@@](C)(O)CC[C@H]1C(=C)CC[C@H]2C(C)(C)CCC[C@]12C [MANOOL] | > 25 |
| 9.2 (≈ 32.1 µM) | > 100 | > 100 | CC(C)c1ccc2c(c1)CC[C@H]1[C@](C)(CO)CCC[C@]21C [POMIFERIN A] | > 25 |

Second part, the molecule before the results:

| Compound | IC50 (LoVo) [µg/mL] | IC50 (RAW264.7) [µg/mL] | IC50 [2] [µg/mL] | IC50 [1] [µg/mL] |
| --- | --- | --- | --- | --- |
| CC(C)(O)c1ccc2c(c1)[C@H](O)C[C@H]1[C@](C)(C(=O)O)CCC[C@]21C | > 25 | > 100 | > 100 | > 25 |
| C=C[C@@](C)(O)CC[C@@H]1[C@@]2(C)CCCC(C)(C)[C@@H]2CC[C@@]1(C)O | 13 (≈ 42.1 µM) | – | – | > 25 |
| CC(C)c1cc2c(cc1O)[C@@]1(C)CCC[C@@](C)(C(=O)O)[C@@H]1CC2 | > 25 | 63 (≈ 199 µM) | > 100 | > 25 |
| C/C(=C\CO)CCC1[C@](C)(O)CC[C@H]2C(C)(C)CCC[C@]12C (some centres undefined) | > 25 | > 100 | > 100 | > 25 |
| C=C[C@@](C)(O)[C@H]1CC2[C@@]3(C)CCCC(C)(C)C3CC[C@@]2(C)O1 (some centres undefined) | 23.1 (≈ 75.4 µM) | 21.6 (≈ 70.5 µM) | 8.7 (≈ 28.4 µM) | 15.7 (≈ 51.2 µM) |
| CC(C)[C@]12C=C3CC[C@H]4[C@](C)(C(=O)O)CCC[C@]4(C)[C@@]3(CC1)OO2 | > 25 | > 100 | > 100 | > 25 |
| CC(C)C1=CC2=CC[C@H]3[C@](C)(COC(=O)CCC(=O)O)CCC[C@]3(C)[C@H]2CC1 | > 25 | > 100 | > 100 | > 25 |
| CC(C)(O)C1=CC2=CC[C@@H]3[C@](C)(CCC[C@@]3(C)C(=O)O)[C@H]2CC1=O | > 25 | > 100 | > 100 | > 25 |
| CC(C)c1ccc2c(c1)C(=O)C[C@H]1[C@](C)(C(=O)O)CCC[C@]21C | > 25 | > 100 | > 100 | 10.2 (≈ 32.4 µM) |
| CC(C)(O)c1ccc2c(c1)C(=O)C[C@H]1[C@](C)(C(=O)O)CCC[C@]21C | > 25 | 44 (≈ 133 µM) | > 100 | > 25 |
| CC(C)c1ccc2c(c1)[C@@H](O)C[C@H]1[C@](C)(CO)CCC[C@]21C | > 25 | > 100 | > 100 | > 25 |
| CC(C)(O)c1ccc2c(c1)CC[C@H]1[C@](C)(C(=O)O)CCC[C@]21C | > 25 | 76.4 (≈ 241 µM) | > 100 | > 25 |
| CC(C)c1ccc2c(c1)C(=O)C[C@H]1[C@](C)(CO)CCC[C@]21C | > 25 | > 100 | > 100 | > 25 |
| CC(C)c1ccc2c(c1)CC[C@H]1[C@](C)(COC(=O)CCC(=O)O)CCC[C@]21C | > 25 | > 100 | > 100 | > 25 |
| CC(C)c1ccc2c(c1)[C@H](O)C[C@H]1[C@](C)(CO)CCC[C@]21C | 9.2 (≈ 30.4 µM) | > 100 | > 100 | > 25 |
| CC(C)(O)c1ccc2c(c1)CC[C@H]1[C@](C)(CO)CCC[C@]21C | > 25 | > 100 | > 100 | > 25 |
| CC(C)[C@@]12C=C3CC[C@H]4[C@](C)(C(=O)O)CCC[C@]4(C)[C@]3(CC1)OO2 | > 25 | > 100 | > 100 | > 25 |
| C=C/C(C)=C\CC1[C@](C)(O)CC[C@H]2C(C)(C)CCC[C@]12C (some centres undefined) | 20.3 (≈ 69.9 µM) | > 100 | > 100 | 25 (≈ 86.1 µM) |
| CC(C)c1ccc2c(c1)[C@H](O)C[C@H]1[C@](C)(C(=O)O)CCC[C@]21C | > 25 | > 100 | > 100 | > 25 |
| CC(C)(O)c1ccc2c(c1)[C@@H](O)C[C@H]1[C@](C)(C(=O)O)CCC[C@]21C | > 25 | > 100 | > 100 | > 25 |
| CC(C)c1ccc2c(c1)[C@@H](O)C[C@H]1[C@](C)(C(=O)O)CCC[C@]21C | > 25 | > 100 | > 100 | > 25 |
| CC(C)/C(C=O)=C\C[C@H]1C(=O)CC[C@@H]2[C@]1(C)CCC[C@@]2(C)C(=O)O [ABIESADINE A] | > 25 | > 100 | > 100 | > 25 |
| CC(C)c1ccc(O)c(CC[C@@H]2[C@@](C)(O)CCC[C@@]2(C)C(=O)O)c1 [ABIESADINE B] | > 25 | > 100 | > 100 | > 25 |
| CC(C)[C@]12O[C@H]1CC1[C@@]3(C)CCC[C@@](C)(C(=O)O)[C@@H]3CC[C@@]1(O)[C@H]2O (some centres undefined) [ABIESADINE C] | > 25 | > 100 | > 100 | > 25 |
| CC(C)[C@]12CC[C@@]3(O1)[C@@]1(C)CCC[C@@](C)(C(=O)O)[C@@H]1CC[C@]3(O)[C@H]2O [ABIESADINE D] | > 25 | > 100 | > 100 | > 25 |
| CC(C)C1=CC[C@H]2C(=C1)C(=O)C[C@@H]1[C@]2(C)CCC[C@@]1(C)C(=O)O [ABIESADINE E] | > 25 | > 100 | > 100 | > 25 |
| CC(C)c1ccc2c(c1)[C@H](O)C[C@H]1[C@](C)(COC(=O)CCC(=O)O)CCC[C@]21C [ABIESADINE F] | > 25 | > 100 | > 100 | > 25 |
| CC(C)[C@]12C=C3CC[C@H]4[C@](C)(COC(=O)CCC(=O)O)CCC[C@]4(C)[C@@]3(CC1)OO2 [ABIESADINE W] | > 25 | > 100 | > 100 | > 25 |
| N=C(N)NN [PIMAGEDINE] | – | 3.3 (≈ 44.5 µM) | – | – |
